The record followed here is patent publication US12071425B2 (Genentech, Inc., priority 2018, dated 2024).

The target of the assay is kinase domain of IRE1 alpha (His-tagged kinase dead construct KR, AA G547-L977, D688N) (Homo sapiens (Human), UniProt O75460, D688N). Briefly: IRE1α TR-FRET competition binding assay. The conditions noted are these: competition with Kinase Tracer 236, 0.1 μM; one hour at room temperature. In outline: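 Sf9-expressed kinase-dead KR construct (0.006 μM final) pre-incubated 1 h at 4° C with Eu anti-His antibody (0.002 μM) in HEPES pH 7.5/MgCl2/Brij/DTT buffer; Kinase Tracer 236 (ATP-competitive probe, 0.1 μM final) added with compound. 1 h at room temperature; tracer displacement read by TR-FRET (665/615 nm).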
kinase domain of IRE1 alpha (His-tagged kinase dead construct KR, AA G547-L977, D688N), sequence (O75460 547-977 D688N): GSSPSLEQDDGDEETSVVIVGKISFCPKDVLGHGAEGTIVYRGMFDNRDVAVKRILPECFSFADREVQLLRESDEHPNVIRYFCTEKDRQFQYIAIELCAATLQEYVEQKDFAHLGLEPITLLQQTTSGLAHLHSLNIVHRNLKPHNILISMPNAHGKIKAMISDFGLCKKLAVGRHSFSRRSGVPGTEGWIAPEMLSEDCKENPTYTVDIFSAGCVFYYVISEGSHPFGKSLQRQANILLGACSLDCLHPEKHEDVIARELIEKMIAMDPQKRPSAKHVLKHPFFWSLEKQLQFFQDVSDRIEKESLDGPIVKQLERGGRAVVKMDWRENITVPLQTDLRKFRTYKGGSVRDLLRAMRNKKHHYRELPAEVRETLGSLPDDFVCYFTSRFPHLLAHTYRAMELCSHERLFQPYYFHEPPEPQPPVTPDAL
(In general: In TR-FRET formats the signal depends on donor and acceptor labels being close together.)

SMILES strings stand for the structures.

A word on the IC50: it is the concentration needed to halve the response being measured. Lower therefore signals inhibition by little substance. The compound `O=S(=O)(CCC(F)(F)F)Nc1c(F)cc(Oc2ncccc2-c2ccnc(N[C@@H]3CNC[C@@H](F)C3)n2)c(F)c1F` [Compound 205, 3,3,3-trifluoro-N-(2,3,6-trifluoro-4-((3-(2-(((3S,5S)-5-fluoro-3-piperidyl)amino)pyrimidin-4-yl)-2-pyridyl)oxy)phenyl)propane-1-sulfonamide] returned an IC50 of 4.4 nM.

As for `O=S(=O)(Nc1ccc(Oc2ncccc2-c2ccnc(N[C@H]3CCCNC3)n2)c(F)c1F)c1cc(F)cc(F)c1` [Compound 206, N-[2,3-Difluoro-4-[[3-[2-[[(3S)-3-piperidyl]amino]pyrimidin-4-yl]-2-pyridyl]oxy]phenyl]-3,5-difluoro-benzenesulfonamide], the IC50 was determined as 8.2 nM.

Consider `O=S(=O)(Nc1ccc(Oc2ncccc2-c2ccnc(N[C@H]3CCCNC3)n2)c(F)c1F)c1cccc(OC(F)(F)F)c1` [Compound 207, (S)-N-(2,3-difluoro-4-((3-(2-(piperidin-3-ylamino)pyrimidin-4-yl)pyridin-2-yl)oxy)phenyl)-3-(trifluoromethoxy)benzenesulfonamide], for which the IC50 was found to be 7.4 nM.

For the compound `O=S(=O)(Nc1ccc(Oc2ncccc2-c2ccnc(N[C@H]3CCCNC3)n2)c(F)c1F)c1cccc(OC(F)F)c1` [Compound 208, (S)-N-(2,3-difluoro-4-((3-(2-(piperidin-3-ylamino)pyrimidin-4-yl)pyridin-2-yl)oxy)phenyl)-3-(difluoromethoxy)benzenesulfonamide], the concentration for half-maximal inhibition (IC50) was 11 nM.

`O=S(=O)(CC1CC2(CCC2)C1)Nc1ccc(Oc2ncccc2-c2ccnc(N[C@H]3CCCNC3)n2)c(F)c1F` [Compound 209, (S)-N-(2,3-difluoro-4-((3-(2-(piperidin-3-ylamino)pyrimidin-4-yl)pyridin-2-yl)oxy)phenyl)-1-(spiro[3.3]heptan-2-yl)methanesulfonamide] gave an IC50 of 7.5 nM.

In turn, `CC(C)(C#N)CCS(=O)(=O)Nc1ccc(Oc2ncccc2-c2ccnc(N[C@H]3CCCNC3)n2)c(F)c1F` [Compound 210, (S)-3-cyano-N-(2,3-difluoro-4-((3-(2-(piperidin-3-ylamino)pyrimidin-4-yl)pyridin-2-yl)oxy)phenyl)-3-methylbutane-1-sulfonamide] displayed a half-inhibitory concentration (IC50) of 23 nM.

The compound `COc1ccc(S(=O)(=O)Nc2ccc(Oc3ncccc3-c3ccnc(N[C@H]4CCCNC4)n3)c(F)c2F)cc1` [Compound 211, (S)-N-(2,3-difluoro-4-((3-(2-(piperidin-3-ylamino)pyrimidin-4-yl)pyridin-2-yl)oxy)phenyl)-4-methoxybenzenesulfonamide] registered an IC50 of 33 nM.

Consider `COc1cccc(S(=O)(=O)Nc2ccc(Oc3ncccc3-c3ccnc(N[C@H]4CCCNC4)n3)c(F)c2F)c1` [Compound 212, (S)-N-(2,3-difluoro-4-((3-(2-(piperidin-3-ylamino)pyrimidin-4-yl)pyridin-2-yl)oxy)phenyl)-3-methoxybenzenesulfonamide], for which the IC50 turned out to be 25 nM.

Regarding `O=S(=O)(Cc1ccc(Cl)cc1)Nc1ccc(Oc2ncccc2-c2ccnc(N[C@H]3CCCNC3)n2)c(F)c1F` [Compound 213, (S)-1-(4-chlorophenyl)-N-(2,3-difluoro-4-((3-(2-(piperidin-3-ylamino)pyrimidin-4-yl)pyridin-2-yl)oxy)phenyl)methanesulfonamide], the 50% inhibitory concentration (IC50) worked out at 5.9 nM.

For `O=S(=O)(Nc1ccc(Oc2ncccc2-c2ccnc(N[C@H]3CCCNC3)n2)c(F)c1F)c1cccnc1` [Compound 214, (S)-N-(2,3-difluoro-4-((3-(2-(piperidin-3-ylamino)pyrimidin-4-yl)pyridin-2-yl)oxy)phenyl)pyridine-3-sulfonamide], the IC50 was found to be 44 nM.

Compound `O=S(=O)(CCC1CCCCC1)Nc1ccc(Oc2ncccc2-c2ccnc(N[C@H]3CCCNC3)n2)c(F)c1F` [Compound 215, (S)-2-cyclohexyl-N-(2,3-difluoro-4-((3-(2-(piperidin-3-ylamino)pyrimidin-4-yl)pyridin-2-yl)oxy)phenyl)ethane-1-sulfonamide] had a half-inhibitory concentration (IC50) of 11 nM. Against the preceding compound, the IC50 is about 4-fold lower.

`CC(C)(CC#N)CS(=O)(=O)Nc1ccc(Oc2ncccc2-c2ccnc(N[C@H]3CCCNC3)n2)c(F)c1F` [Compound 216, (S)-3-cyano-N-(2,3-difluoro-4-((3-(2-(piperidin-3-ylamino)pyrimidin-4-yl)pyridin-2-yl)oxy)phenyl)-2,2-dimethylpropane-1-sulfonamide]: the IC50 amounted to 13 nM.

For `O=S(=O)(CCC1CC1(F)F)Nc1ccc(Oc2ncccc2-c2ccnc(N[C@H]3CCCNC3)n2)c(F)c1F` (stereo partly drawn) [Compound 217, N-(2,3-difluoro-4-((3-(2-(((S)-piperidin-3-yl)amino)pyrimidin-4-yl)pyridin-2-yl)oxy)phenyl)-2-(2,2-difluorocyclopropyl)ethane-1-sulfonamide], the 50% inhibitory concentration (IC50) worked out at 16 nM.

In turn, `O=S(=O)(Nc1ccc(Oc2ncccc2-c2ccnc(N[C@H]3CCCNC3)n2)c(F)c1F)c1ccccc1` [Compound 218, (S)-N-(2,3-difluoro-4-((3-(2-(piperidin-3-ylamino)pyrimidin-4-yl)pyridin-2-yl)oxy)phenyl)benzenesulfonamide] displayed an IC50 of 16 nM.

The compound `N#Cc1ccc(S(=O)(=O)Nc2ccc(Oc3ncccc3-c3ccnc(N[C@H]4CCCNC4)n3)c(F)c2F)cc1` [Compound 219, (S)-4-cyano-N-(2,3-difluoro-4-((3-(2-(piperidin-3-ylamino)pyrimidin-4-yl)pyridin-2-yl)oxy)phenyl)benzenesulfonamide] gave an IC50 of 53 nM.

`N#Cc1cccc(S(=O)(=O)Nc2ccc(Oc3ncccc3-c3ccnc(N[C@H]4CCCNC4)n3)c(F)c2F)c1` [Compound 220, (S)-3-cyano-N-(2,3-difluoro-4-((3-(2-(piperidin-3-ylamino)pyrimidin-4-yl)pyridin-2-yl)oxy)phenyl)benzenesulfonamide] had an IC50 of 19 nM.

`Cn1cnc(S(=O)(=O)Nc2ccc(Oc3ncccc3-c3ccnc(N[C@H]4CCCNC4)n3)c(F)c2F)c1` [Compound 221, (S)-N-(2,3-difluoro-4-((3-(2-(piperidin-3-ylamino)pyrimidin-4-yl)pyridin-2-yl)oxy)phenyl)-1-methyl-1H-imidazole-4-sulfonamide]: the IC50 was 380 nM.

On to `Cn1cc(S(=O)(=O)Nc2ccc(Oc3ncccc3-c3ccnc(N[C@H]4CCCNC4)n3)c(F)c2F)cn1` [Compound 222, (S)-N-(2,3-difluoro-4-((3-(2-(piperidin-3-ylamino)pyrimidin-4-yl)pyridin-2-yl)oxy)phenyl)-1-methyl-1H-pyrazole-4-sulfonamide], for which the IC50 is 240 nM.

`O=S(=O)(Nc1ccc(Oc2ncccc2-c2ccnc(N[C@H]3CCCNC3)n2)c(F)c1F)c1ccc(OC(F)(F)F)cc1` [Compound 223, (S)-N-(2,3-difluoro-4-((3-(2-(piperidin-3-ylamino)pyrimidin-4-yl)pyridin-2-yl)oxy)phenyl)-4-(trifluoromethoxy)benzenesulfonamide] registered an IC50 of 26 nM. This IC50 is about 9.2-fold lower than that of the compound before.

Consider `COc1ccccc1S(=O)(=O)Nc1ccc(Oc2ncccc2-c2ccnc(N[C@H]3CCCNC3)n2)c(F)c1F` [Compound 224, (S)-N-(2,3-difluoro-4-((3-(2-(piperidin-3-ylamino)pyrimidin-4-yl)pyridin-2-yl)oxy)phenyl)-2-methoxybenzenesulfonamide], for which the IC50 was determined as 40 nM.

With `O=S(=O)(Cc1cccc(Cl)c1)Nc1ccc(Oc2ncccc2-c2ccnc(N[C@H]3CCCNC3)n2)c(F)c1F` [Compound 225, (S)-1-(3-chlorophenyl)-N-(2,3-difluoro-4-((3-(2-(piperidin-3-ylamino)pyrimidin-4-yl)pyridin-2-yl)oxy)phenyl)methanesulfonamide], the IC50 was found to be 6.1 nM.

`CC(C)(C)CCS(=O)(=O)Nc1ccc(Oc2ncccc2-c2ccnc(N[C@H]3CCCNC3)n2)c(F)c1F` [Compound 226, (S)-N-(2,3-difluoro-4-((3-(2-(piperidin-3-ylamino)pyrimidin-4-yl)pyridin-2-yl)oxy)phenyl)-3,3-dimethylbutane-1-sulfonamide]: the IC50 turned out to be 18 nM.

Turning to `O=S(=O)(CC1CCCC1)Nc1ccc(Oc2ncccc2-c2ccnc(N[C@H]3CCCNC3)n2)c(F)c1F` [Compound 228, (S)-1-cyclopentyl-N-(2,3-difluoro-4-((3-(2-(piperidin-3-ylamino)pyrimidin-4-yl)pyridin-2-yl)oxy)phenyl)methanesulfonamide], the IC50 stood at 9.2 nM. Against the preceding compound, the IC50 is about 2-fold lower.

`N#Cc1cccc(CS(=O)(=O)Nc2ccc(Oc3ncccc3-c3ccnc(N[C@H]4CCCNC4)n3)c(F)c2F)c1` [Compound 229, (S)-1-(3-cyanophenyl)-N-(2,3-difluoro-4-((3-(2-(piperidin-3-ylamino)pyrimidin-4-yl)pyridin-2-yl)oxy)phenyl)methanesulfonamide]: the IC50 came to 6.4 nM.

`CC(C)(C)CCCS(=O)(=O)Nc1ccc(Oc2ncccc2-c2ccnc(N[C@H]3CCCNC3)n2)c(F)c1F` [Compound 230, (S)-N-(2,3-difluoro-4-((3-(2-(piperidin-3-ylamino)pyrimidin-4-yl)pyridin-2-yl)oxy)phenyl)-4,4-dimethylpentane-1-sulfonamide] yielded an IC50 of 14 nM.

For `O=S(=O)(Cc1cccc(F)c1)Nc1ccc(Oc2ncccc2-c2ccnc(N[C@H]3CCCNC3)n2)c(F)c1F` [Compound 231, (S)-N-(2,3-difluoro-4-((3-(2-(piperidin-3-ylamino)pyrimidin-4-yl)pyridin-2-yl)oxy)phenyl)-1-(3-fluorophenyl)methanesulfonamide], the IC50 was 7.2 nM.

Regarding `O=S(=O)(CC1CC(F)(F)C1)Nc1ccc(Oc2ncccc2-c2ccnc(N[C@H]3CCCNC3)n2)c(F)c1F` [Compound 232, (S)-N-(2,3-difluoro-4-(3-(2-(piperidin-3-ylamino)pyrimidin-4-yl)pyridin-2-yloxy)phenyl)-1-(3,3-difluorocyclobutyl)methanesulfonamide], the IC50 came to 15 nM. Compared with the last compound, the IC50 is about 2.1-fold higher.

`O=S(=O)(Cc1cccnc1)Nc1ccc(Oc2ncccc2-c2ccnc(N[C@H]3CCCNC3)n2)c(F)c1F` [Compound 233, (S)-N-(2,3-difluoro-4-(3-(2-(piperidin-3-ylamino)pyrimidin-4-yl)pyridin-2-yloxy)phenyl)-1-(pyridin-3-yl)methanesulfonamide] returned a concentration for half-maximal inhibition (IC50) of 9 nM. Compared with the last compound, the IC50 is about 1.7-fold lower.
